Patent US9730937B2, “RAF kinase modulator compounds and methods of use thereof” (AMBIT BIOSCIENCES CORPORATION, priority 2008, dated 2017)
Where a name gives a salt, the structure may show the parent alone. Read-outs that look alike come from different tables or passages of the source.

Tests used:
[1] = test system: panel of 290 distinct kinases (321 in the larger panel), excluding mutant variants
mutant BRAF kinase = mutant BRAF kinase (Homo sapiens (Human), UniProt P15056, V600E); conditions: read-out: BRAF V600E Kd, class symbols
Chain of mutant BRAF kinase (P15056 whole entry V600E): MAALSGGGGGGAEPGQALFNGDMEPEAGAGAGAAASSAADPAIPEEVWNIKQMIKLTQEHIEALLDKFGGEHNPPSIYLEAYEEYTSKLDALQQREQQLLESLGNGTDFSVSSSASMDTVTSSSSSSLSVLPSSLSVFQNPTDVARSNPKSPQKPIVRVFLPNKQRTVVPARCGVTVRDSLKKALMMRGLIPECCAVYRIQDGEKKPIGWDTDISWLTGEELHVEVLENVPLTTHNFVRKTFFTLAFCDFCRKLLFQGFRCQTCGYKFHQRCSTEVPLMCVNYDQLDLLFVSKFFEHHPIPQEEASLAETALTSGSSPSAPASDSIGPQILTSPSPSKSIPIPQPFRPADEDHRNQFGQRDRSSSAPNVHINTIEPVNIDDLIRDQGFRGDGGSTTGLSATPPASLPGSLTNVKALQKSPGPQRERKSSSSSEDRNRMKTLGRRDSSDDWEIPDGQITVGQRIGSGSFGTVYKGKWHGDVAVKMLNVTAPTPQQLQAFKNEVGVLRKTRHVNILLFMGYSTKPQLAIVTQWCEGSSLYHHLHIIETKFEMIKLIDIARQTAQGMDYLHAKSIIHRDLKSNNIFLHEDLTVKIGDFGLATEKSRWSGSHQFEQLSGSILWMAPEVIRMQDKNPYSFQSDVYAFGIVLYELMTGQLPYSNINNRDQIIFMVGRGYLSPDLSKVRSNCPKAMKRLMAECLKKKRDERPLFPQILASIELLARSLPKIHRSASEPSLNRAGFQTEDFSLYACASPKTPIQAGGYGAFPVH

[2] = kinase selectivity score, 290 distinct kinases, class symbols
[3] = no asterisk: panel of 290 distinct kinases

Row | SMILES | S35 [1, 2] | Kd (mutant BRAF kinase) [nM] | S35 [1, 3]
1 | COCCOc1cc2ncnc(Oc3cccc(NC(=O)Nc4cc(C(C)(C)C)on4)c3)c2cc1OC [Ex 7, 1-(5-tert-Butylisoxazol-3-yl)-3-{3-[6-methoxy-7-(2-methoxyethoxy)quinazolin-4-yloxy]phenyl}urea hydrochloride] | D (D > 0.40) | < 250 | 
2 | COCCOc1cc2ncnc(Oc3cccc(NC(=O)Nc4cc(C(C)(C)C)on4)c3)c2cc1OCCOC [Ex 12, 1-{3-[6,7-bis(2-methoxyethoxy)quinazolin-4-yloxy]phenyl}-3-(5-tert-butylisoxazol-3-yl)urea hydrochloride] | C (0.20 < C ≦ 0.40) | < 250 | 
3 | CC(C)(C)c1cc(NC(=O)Nc2cccc(Oc3ncnc4cc5c(cc34)OCCO5)c2)no1 [Ex 14, 1-(5-tert-butylisoxazol-3-yl)-3-[3-(7,8-dihydro-[1,4]dioxino[2,3-g]quinazolin-4-yloxy)phenyl]urea hydrochloride] | C (0.20 < C ≦ 0.40) | < 250 | 
4 | COCCOc1cc2c(Oc3cccc(NC(=O)Nc4cc(C(C)(C)C)on4)c3)ncnc2cc1OC [Ex 15, 1-(5-tert-butylisoxazol-3-yl)-3-{3-[7-methoxy-6-(2-methoxyethoxy)quinazolin-4-yloxy]phenyl}urea hydrochloride] | C (0.20 < C ≦ 0.40) | < 250 | 
5 | COc1cc2ncnc(Oc3cccc(NC(=O)Nc4cc(C(C)(C)C)on4)c3)c2cc1OCCN1CCC(CO)CC1 [Ex 17, 1-(5-tert-butylisoxazol-3-yl)-3-(3-(6-(2-(4-(hydroxymethyl)piperidin-1-yl)ethoxy)-7-methoxyquinazolin-4-yloxy)phenyl)urea] | C (0.20 < C ≦ 0.40) | < 250 | 
6 | COc1cc2ncnc(Oc3cccc(NC(=O)Nc4cc(C(C)(C)C)on4)c3)c2cc1OCCN1CCN(C)CC1 [Ex 18, 1-(5-tert-butylisoxazol-3-yl)-3-(3-(7-methoxy-6-(2-(4-methylpiperazin-1-yl)ethoxy)quinazolin-4-yloxy)phenyl)urea] | D (D > 0.40) | < 250 | 
7 | COc1cc2ncnc(Oc3cccc(NC(=O)Nc4cc(C(C)(C)C)on4)c3)c2cc1OCCN1CCN(CCO)CC1 [Ex 19, 1-(5-tert-butylisoxazol-3-yl)-3-(3-(6-(2-(4-(2-hydroxyethyl)piperazin-1-yl)ethoxy)-7-methoxyquinazolin-4-yloxy)phenyl)urea] | D (D > 0.40) | < 250 | 
8 | COc1cc2ncnc(Oc3cccc(NC(=O)Nc4cc(C(C)(C)C)on4)c3)c2cc1OCCN1CCOCC1 [Ex 20, 1-(5-tert-butylisoxazol-3-yl)-3-(3-(7-methoxy-6-(2-morpholinoethoxy)quinazolin-4-yloxy)phenyl)urea] | C (0.20 < C ≦ 0.40) | < 250 | 
9 | COc1cc2ncnc(Oc3cccc(NC(=O)Nc4cc(C(C)(C)C)on4)c3)c2cc1OCCCN1CCN(C)CC1 [Ex 21, 1-(5-tert-butylisoxazol-3-yl)-3-(3-(7-methoxy-6-(3-(4-methylpiperazin-1-yl)propoxy)quinazolin-4-yloxy)phenyl)urea] | D (D > 0.40) | < 250 | 
10 | COc1cc2ncnc(Oc3cccc(NC(=O)Nc4cc(C(C)(C)C)on4)c3)c2cc1OCCCN1CCCCC1 [Ex 23, 1-(5-tert-butylisoxazol-3-yl)-3-(3-(7-methoxy-6-(3-(piperidin-1-yl)propoxy)quinazolin-4-yloxy)phenyl)urea] | D (D > 0.40) | < 250 | 
11 | COc1cc2ncnc(Oc3cccc(NC(=O)Nc4cc(C5(C(F)(F)F)CC5)on4)c3)c2cc1OC [Ex 377, 1-(3-(6,7-dimethoxyquinazolin-4-yloxy)phenyl)-3-(5-(1-(trifluoromethyl)cyclopropyl)isoxazol-3-yl)urea] |  |  | C (0.20 < C ≦ 0.40)
12 | COc1cc2ncnc(Sc3cccc(NC(=O)Nc4cc(C5(C(F)(F)F)CC5)on4)c3)c2cc1OC [Ex 378, 1-(3-(6,7-dimethoxyquinazolin-4-ylthio)phenyl)-3-(5-(1-(trifluoromethyl)cyclopropyl)isoxazol-3-yl)urea] |  |  | C (0.20 < C ≦ 0.40)
13 | COc1cc2ncnc(Oc3cccc(NC(=O)Nc4cc(C(C)(C)C)nn4-c4cccc(C(F)(F)F)c4)c3)c2cc1OC [Ex 379, 1-(3-tert-butyl-1-(3-(trifluoromethyl)phenyl)-1H-pyrazol-5-yl)-3-(3-(6,7-dimethoxyquinazolin-4-yloxy)phenyl)urea] |  |  | D (D > 0.40)
14 | COc1cc2ncnc(Sc3cccc(NC(=O)Nc4cc(C(C)(C)C)nn4-c4cccc(C(F)(F)F)c4)c3)c2cc1OC [Ex 380, 1-(3-tert-butyl-1-(3-(trifluoromethyl)phenyl)-1H-pyrazol-5-yl)-3-(3-(6,7-dimethoxyquinazolin-4-ylthio)phenyl)urea] |  |  | C (0.20 < C ≦ 0.40)
15 | COc1cc2ncnc(Sc3cccc(NC(=O)Nc4cc(C(C)(C)C#N)no4)c3)c2cc1OC [Ex 381, 1-(3-(2-cyanopropan-2-yl)isoxazol-5-yl)-3-(3-(6,7-dimethoxyquinazolin-4-ylthio)phenyl)urea] |  |  | C (0.20 < C ≦ 0.40)
16 | COc1cc2ncnc(Sc3cccc(NC(=O)Nc4cc(C(F)(F)F)no4)c3)c2cc1OC [Ex 382, 1-(3-(6,7-dimethoxyquinazolin-4-ylthio)phenyl)-3-(3-(trifluoromethyl)isoxazol-5-yl)urea] |  |  | C (0.20 < C ≦ 0.40)

Row | SMILES | S35 [1, 2] | Kd (mutant BRAF kinase) [nM] | S35 [1, 3]
17 | COc1cc2ncnc(Sc3cccc(NC(=O)Nc4cc(C5(C(F)(F)F)CC5)nn4-c4ccccc4)c3)c2cc1OC [Ex 383, 1-(3-(6,7-dimethoxyquinazolin-4-ylthio)phenyl)-3-(1-phenyl-3-(1-(trifluoromethyl)cyclopropyl)-1H-pyrazol-5-yl)urea] |  |  | C (0.20 < C ≦ 0.40)
18 | CCOc1cc2ncnc(Oc3cccc(NC(=O)Nc4cc(C(C)(C)F)no4)c3)c2cc1OC [Ex 385, 1-(3-(7-ethoxy-6-methoxyquinazolin-4-yloxy)phenyl)-3-(3-(2-fluoropropan-2-yl)isoxazol-5-yl)urea] |  |  | C (0.20 < C ≦ 0.40)
19 | CCOc1cc2ncnc(Oc3cccc(NC(=O)Nc4cc(C(C)(CF)CF)on4)c3)c2cc1OC [Ex 386, 1-(5-(1,3-difluoro-2-methylpropan-2-yl)isoxazol-3-yl)-3-(3-(7-ethoxy-6-methoxyquinazolin-4-yloxy)phenyl)urea] |  |  | C (0.20 < C ≦ 0.40)
20 | CCOc1cc2ncnc(Oc3cccc(NC(=O)Nc4cc(C(C)(C)C)nn4-c4ccccc4)c3)c2cc1OC [Ex 387, 1-(3-tert-butyl-1-phenyl-1H-pyrazol-5-yl)-3-(3-(7-ethoxy-6-methoxyquinazolin-4-yloxy)phenyl)urea] |  |  | D (D > 0.40)
21 | CCOc1cc2ncnc(Sc3cccc(NC(=O)Nc4cc(C(C)(C)F)no4)c3)c2cc1OC [Ex 389, 1-(3-(7-ethoxy-6-methoxyquinazolin-4-ylthio)phenyl)-3-(3-(2-fluoropropan-2-yl)isoxazol-5-yl)urea] |  |  | C (0.20 < C ≦ 0.40)
22 | CCOc1cc2c(Oc3cccc(NC(=O)Nc4cc(C(C)(C)C)nn4-c4ccccc4)c3)ncnc2cc1OC [Ex 390, 1-(3-tert-butyl-1-phenyl-1H-pyrazol-5-yl)-3-(3-(6-ethoxy-7-methoxyquinazolin-4-yloxy)phenyl)urea] |  |  | D (D > 0.40)
23 | CCOc1cc2c(Oc3cccc(NC(=O)Nc4cc(C(F)(F)F)nn4-c4ccccc4)c3)ncnc2cc1OC [Ex 391, 1-(3-(6-ethoxy-7-methoxyquinazolin-4-yloxy)phenyl)-3-(1-phenyl-3-(trifluoromethyl)-1H-pyrazol-5-yl)urea] |  |  | C (0.20 < C ≦ 0.40)
24 | CCOc1cc2c(Oc3cccc(NC(=O)Nc4cc(C(C)(C)F)no4)c3)ncnc2cc1OC [Ex 392, 1-(3-(6-ethoxy-7-methoxyquinazolin-4-yloxy)phenyl)-3-(3-(2-fluoropropan-2-yl)isoxazol-5-yl)urea] |  |  | C (0.20 < C ≦ 0.40)
25 | CCOc1cc2c(Oc3cccc(NC(=O)Nc4cc(C(C)(CF)CF)on4)c3)ncnc2cc1OC [Ex 393, 1-(5-(1,3-difluoro-2-methylpropan-2-yl)isoxazol-3-yl)-3-(3-(6-ethoxy-7-methoxyquinazolin-4-yloxy)phenyl)urea] |  |  | C (0.20 < C ≦ 0.40)
26 | CCOc1cc2c(Sc3cccc(NC(=O)Nc4cc(C(C)(C)F)no4)c3)ncnc2cc1OC [Ex 394, 1-(3-(6-ethoxy-7-methoxyquinazolin-4-ylthio)phenyl)-3-(3-(2-fluoropropan-2-yl)isoxazol-5-yl)urea] |  |  | C (0.20 < C ≦ 0.40)
27 | CCOc1cc2c(Sc3cccc(NC(=O)Nc4cc(C(C)(CF)CF)on4)c3)ncnc2cc1OC [Ex 395, 1-(5-(1,3-difluoro-2-methylpropan-2-yl)isoxazol-3-yl)-3-(3-(6-ethoxy-7-methoxyquinazolin-4-ylthio)phenyl)urea] |  |  | C (0.20 < C ≦ 0.40)
28 | COc1cc2c(Oc3cccc(NC(=O)Nc4cc(C(F)(F)F)nn4-c4ccccc4)c3)ncnc2cc1OCCN1CCOCC1 [Ex 396, 1-(3-(6-Methoxy-7-(2-morpholinoethoxy)quinazolin-4-yloxy)phenyl)-3-(1-phenyl-3-(trifluoromethyl)-1H-pyrazol-5-yl)urea] |  |  | C (0.20 < C ≦ 0.40)
29 | COc1cc2ncnc(Oc3cc(NC(=O)Nc4cc(C(F)(F)F)nn4-c4ccccc4)ccc3F)c2cc1OC [Ex 397, 1-(3-(6,7-Dimethoxyquinazolin-4-yloxy)-4-fluorophenyl)-3-(1-phenyl-3-(trifluoromethyl)-1H-pyrazol-5-yl)urea] |  |  | C (0.20 < C ≦ 0.40)
30 | CCc1cc(NC(=O)Nc2cccc(Sc3ncnc4cc(OC)c(OC)cc34)c2)n(-c2ccccc2)n1 [Ex 399, 1-(3-(6,7-dimethoxyquinazolin-4-ylthio)phenyl)-3-(3-ethyl-1-phenyl-1H-pyrazol-5-yl)urea] |  |  | C (0.20 < C ≦ 0.40)
31 | CCOc1cc2ncnc(Oc3cccc(NC(=O)Nc4cc(C(F)(F)F)nn4-c4ccccc4)c3)c2cc1OC [Example 384, 1-(3-(7-ethoxy-6-methoxyquinazolin-4-yloxy)phenyl)-3-(1-phenyl-3-(trifluoromethyl)-1H-pyrazol-5-yl)urea] |  |  | C (0.20 < C ≦ 0.40)
32 | CCOc1cc2ncnc(Sc3cccc(NC(=O)Nc4cc(C(C)(CF)CF)on4)c3)c2cc1OC [Example 388, 1-(5-(1,3-difluoro-2-methylpropan-2-yl)isoxazol-3-yl)-3-(3-(7-ethoxy-6-methoxyquinazolin-4-ylthio)phenyl)urea] |  |  | C (0.20 < C ≦ 0.40)
